We go through eight compounds from PubChem BioAssay AID1259407 (Chemical Carcinogenesis Research Information System (CCRIS), 2018).

The subject of the data set is CCRIS mutagenicity, Ames/micronucleus/aberration tests. The experiment in a line: CCRIS mutagenicity studies.
Setting [1] is: Test System: AMES SALMONELLA TYPHIMURIUM, Strain/Indicator: TA98, Metabolic Activation: NONE, Method: STANDARD PLATE.
Setting [2] is: Test System: AMES SALMONELLA TYPHIMURIUM, Strain/Indicator: TA98, Metabolic Activation: RAT, LIVER, S-9, AROCLOR 1254, Method: STANDARD PLATE.
Where [3] appears, read: Test System: AMES SALMONELLA TYPHIMURIUM, Strain/Indicator: TA100, Metabolic Activation: NONE, Method: STANDARD PLATE.
The mark [4] stands for this setting: Test System: AMES SALMONELLA TYPHIMURIUM, Strain/Indicator: TA100, Metabolic Activation: RAT, LIVER, S-9, AROCLOR 1254, Method: STANDARD PLATE.

Calls of active or inactive are those of the source. No rule for the calls is given here.

As for `CC(C)n1c(/C=C/[C@H](O)C[C@H](O)CC(=O)O)c(-c2ccc(F)cc2)c2ccccc21`, the mutagenic call (End Point: AMES SALMONELLA TYPHIMURIUM, Test System: TA98, Metabolic Activation: NONE, Method: STANDARD PLATE) was “inactive; negative”; the mutagenic call (End Point: AMES SALMONELLA TYPHIMURIUM, Test System: TA98, Metabolic Activation: RAT, LIVER, S-9, AROCLOR 1254, Method: STANDARD PLATE) was “inactive; negative”; the mutagenic call (End Point: AMES SALMONELLA TYPHIMURIUM, Test System: TA100, Metabolic Activation: NONE, Method: STANDARD PLATE) is “inactive; negative”; the mutagenic call (End Point: AMES SALMONELLA TYPHIMURIUM, Test System: TA100, Metabolic Activation: RAT, LIVER, S-9, AROCLOR 1254, Method: STANDARD PLATE) was “inactive; negative”; the mutagenic call (End Point: AMES SALMONELLA TYPHIMURIUM, Test System: TA1535, Metabolic Activation: NONE, Method: STANDARD PLATE) is “inactive; negative”; the mutagenic call (End Point: AMES SALMONELLA TYPHIMURIUM, Test System: TA1535, Metabolic Activation: RAT, LIVER, S-9, AROCLOR 1254, Method: STANDARD PLATE) is “inactive; negative”. The mutagenic call was “inactive; negative” (End Point: AMES SALMONELLA TYPHIMURIUM, Test System: TA1537, Metabolic Activation: NONE, Method: STANDARD PLATE); “inactive; negative” (End Point: AMES SALMONELLA TYPHIMURIUM, Test System: TA1537, Metabolic Activation: RAT, LIVER, S-9, AROCLOR 1254, Method: STANDARD PLATE); “inactive; negative” (End Point: AMES SALMONELLA TYPHIMURIUM, Test System: TA1538, Metabolic Activation: NONE, Method: STANDARD PLATE); “inactive; negative” (End Point: AMES SALMONELLA TYPHIMURIUM, Test System: TA1538, Metabolic Activation: RAT, LIVER, S-9, AROCLOR 1254, Method: STANDARD PLATE); “inactive; negative” (End Point: E. COLI, Test System: WP2 UVRA/PKM101, Metabolic Activation: NONE, Method: STANDARD PLATE); “inactive; negative” (End Point: E. COLI, Test System: WP2 UVRA/PKM101, Metabolic Activation: RAT, LIVER, S-9, AROCLOR 1254, Method: STANDARD PLATE). In addition, the mutagenic call (End Point: E. COLI, Test System: WP2 UVRA, Metabolic Activation: NONE, Method: STANDARD PLATE) is “inactive; negative”; the mutagenic call (End Point: E. COLI, Test System: WP2 UVRA, Metabolic Activation: RAT, LIVER, S-9, AROCLOR 1254, Method: STANDARD PLATE) was “inactive; negative”; the mutagenic call (End Point: IN VITRO CHROMOSOMAL ABERRATIONS, Test System: CHINESE HAMSTER V79A, Metabolic Activation: NONE) is “inactive; negative”; the mutagenic call (End Point: IN VITRO CHROMOSOMAL ABERRATIONS, Test System: CHINESE HAMSTER V79A, Metabolic Activation: RAT, LIVER, S-9, AROCLOR 1254) was “inactive; negative”; the mutagenic call (End Point: IN VIVO MICRONUCLEUS, Test System: BONE MARROW POLYCHROMATIC ERYTHROCYTES, Species: MOUSE, Strain/Sex: CD-1/MALE, FEMALE, Route: GAVAGE) is “inactive; negative”; the mutagenic call under setting [1] was “inactive; negative”. Further, the mutagenic call runs as follows: under setting [2], “inactive; negative”; under setting [3], “inactive; negative”; under setting [4], “inactive; negative”; (Test System: AMES SALMONELLA TYPHIMURIUM, Strain/Indicator: TA1535, Metabolic Activation: NONE, Method: STANDARD PLATE) “inactive; negative”; (Test System: AMES SALMONELLA TYPHIMURIUM, Strain/Indicator: TA1535, Metabolic Activation: RAT, LIVER, S-9, AROCLOR 1254, Method: STANDARD PLATE) “inactive; negative”; (Test System: AMES SALMONELLA TYPHIMURIUM, Strain/Indicator: TA1537, Metabolic Activation: NONE, Method: STANDARD PLATE) “inactive; negative”. The mutagenic call reads like this: (Test System: AMES SALMONELLA TYPHIMURIUM, Strain/Indicator: TA1537, Metabolic Activation: RAT, LIVER, S-9, AROCLOR 1254, Method: STANDARD PLATE) “inactive; negative”; (Test System: AMES SALMONELLA TYPHIMURIUM, Strain/Indicator: TA1538, Metabolic Activation: NONE, Method: STANDARD PLATE) “inactive; negative”; (Test System: AMES SALMONELLA TYPHIMURIUM, Strain/Indicator: TA1538, Metabolic Activation: RAT, LIVER, S-9, AROCLOR 1254, Method: STANDARD PLATE) “inactive; negative”; (Test System: CHINESE HAMSTER FIBROBLASTS, Strain/Indicator: CHINESE HAMSTER V79A/HGPRT, Metabolic Activation: NONE) “inactive; negative”; (Test System: CHINESE HAMSTER FIBROBLASTS, Strain/Indicator: CHINESE HAMSTER V79A/HGPRT, Metabolic Activation: RAT, LIVER, S-9, AROCLOR 1254) “inactive; negative”; (Test System: CHINESE HAMSTER V-79, Strain/Indicator: V-79 (HGPRT), Metabolic Activation: NONE) “inactive; negative”. The mutagenic call was “inactive; negative” (Test System: CHINESE HAMSTER V-79, Strain/Indicator: V-79 (HGPRT), Metabolic Activation: RAT, LIVER, S-9, AROCLOR 1254); “inactive; negative” (Test System: E. COLI, Strain/Indicator: WP2 UVRA (PKM101), Metabolic Activation: NONE, Method: STANDARD PLATE); “inactive; negative” (Test System: E. COLI, Strain/Indicator: WP2 UVRA (PKM101), Metabolic Activation: RAT, LIVER, S-9, AROCLOR 1254, Method: STANDARD PLATE); “inactive; negative” (Test System: E. COLI, Strain/Indicator: WP2 UVRA, Metabolic Activation: NONE, Method: STANDARD PLATE); “inactive; negative” (Test System: E. COLI, Strain/Indicator: WP2 UVRA, Metabolic Activation: RAT, LIVER, S-9, AROCLOR 1254, Method: STANDARD PLATE).
Regarding `O=[N+]([O-])c1ccc2c3c4c(cccc4c4ccccc4c13)[C@H](O)[C@H]2O`, the mutagenic call is, setting by setting: (Test System: AMES SALMONELLA TYPHIMURIUM, Strain/Indicator: TA98(1,8-DNP6), Metabolic Activation: NONE, Method: STANDARD PLATE) “active; positive”; (Test System: AMES SALMONELLA TYPHIMURIUM, Strain/Indicator: TA98(1,8-DNP6), Metabolic Activation: RAT, LIVER, S-9, AROCLOR 1254, Method: STANDARD PLATE) “active; positive”; (Test System: AMES SALMONELLA TYPHIMURIUM, Strain/Indicator: TA98(NR), Metabolic Activation: NONE, Method: STANDARD PLATE) “active; positive”; (Test System: AMES SALMONELLA TYPHIMURIUM, Strain/Indicator: TA98(NR), Metabolic Activation: RAT, LIVER, S-9, AROCLOR 1254, Method: STANDARD PLATE) “active; positive”; under setting [1], “active; positive”; under setting [2], “active; positive”.
Take `COc1ccc([C@H]2O[C@H]2C)cc1`: the mutagenic call by setting is: (Test System: AMES SALMONELLA TYPHIMURIUM, Strain/Indicator: TA98, Metabolic Activation: NONE, Method: PREINCUBATION) “inactive; negative”; (Test System: AMES SALMONELLA TYPHIMURIUM, Strain/Indicator: TA100, Metabolic Activation: NONE, Method: PREINCUBATION) “active; positive”; (Test System: AMES SALMONELLA TYPHIMURIUM, Strain/Indicator: TA1535, Metabolic Activation: NONE, Method: PREINCUBATION) “active; positive”.
For the compound `O=C(c1ccccc1)C1OC1c1ccccc1` (stereo unspecified), the mutagenic call was “inactive; negative” under setting [1], “inactive; negative” under setting [2], “active; positive” under setting [3] and “active; positive” under setting [4].
On to `CC(=O)Nc1ccc2c(c1)Cc1cc(NC(C)=O)ccc1-2`, for which the mutagenic call (Test System: AMES SALMONELLA TYPHIMURIUM, Strain/Indicator: TA1538, Metabolic Activation: RAT, LIVER, S-9, PHENOBARBITAL, Method: STANDARD PLATE) is “active; positive”.
Regarding `Oc1cc(O)c2c(c1)O[C@H](c1ccc(O)c(O)c1)[C@@H](O)C2`, the mutagenic call is, setting by setting: (Test System: Ames Salmonella typhimurium, Strain/Indicator: TA102, Metabolic Activation: None, Method: Preincubation) “inactive; negative”; (Test System: Ames Salmonella typhimurium, Strain/Indicator: TA102, Metabolic Activation: Rat, Liver, S-9, Aroclor 1254 in 0.154 M KCl, Method: Preincubation) “inactive; negative”.
For the compound `CC(C)OC(=O)c1cc(NC(=S)OC(C)C)ccc1Cl`, the mutagenic call is, setting by setting: (Test System: Mouse lymphoma, Strain/Indicator: L5178Y (tk+/tk-), Metabolic Activation: None, Method: Suspension/plate) “inactive; negative”; (Test System: Mouse lymphoma, Strain/Indicator: L5178Y (tk+/tk-), Metabolic Activation: Rat, Liver, S-9, Aroclor 1254, Method: Suspension/plate) “inactive; negative”.
On to `CC1(C)CCC[C@]2(C)[C@H]3CC=C(C=O)[C@@H](C=O)[C@]3(C)CC[C@@H]12`, for which the mutagenic call by setting is: under setting [1], “inactive; negative”; under setting [3], “inactive; negative”; (Test System: AMES SALMONELLA TYPHIMURIUM, Strain/Indicator: TA2637, Metabolic Activation: NONE, Method: STANDARD PLATE) “inactive; negative”.
